# Measured values published in patent US20250230171A1 (MOMA Therapeutics, Inc., priority 2023, published 2025).
# Like-named read-outs stand apart in the source and are kept apart here.
# Assays:
# DLD1 BRCA2 (−/−) cells = test: 7-day cell viability assay (CellTiter-Glo), DLD1 BRCA2 (−/−); type: cell-based, human; details: n=2, read-out: Viability IC50 (uM) DLD1 BRCA2 null
# Protocol: (§1) Cell lines DLD1 WT and DLD1 BRCA2 (−/−) (Horizon Discovery Cat No. HD PAR-008 and HD-105-007) were plated in 384-well culture plates at seeding densities of 100cells/50 ul/well and 200 cells/50 uL/well respectively. The seeding densities are pre-determined from the growth curve kinetics performed to ensure log linear phase of cell growth for these 2 cell lines. These assay plates are then placed in the incubator at 37° C., 5% CO2, relative humidity >90% for a few hours before addition of test compounds. Compounds are dispensed using the Tecan HPD300 or Echo based on the plate map in the appropriate wells of the 384-well plates. The cells are treated with nine-point dose response with 3-fold serial dilutions of test compounds starting at 10 uM top concentration. After addition of the test compounds, the plates are incubated at 37° C., 5% CO2, relative humidity >90% for 7 days. CellTiter-Glo (Promega Cat. No. G7573), ATP detection reagent is prepared according to manufacturer's specifications. Cell assay plates are removed from incubator and bring to room temperature (RT) by letting them sit at bench top for at least 15 min. Using the MultiDrop liquid handler or a multichannel pipette, 35 μL/well of CTG is added and the plates are then placed shakes for 5 seconds, RT.
# DLD1 WT cells = test: 7-day cell viability assay (CellTiter-Glo), DLD1 parental (WT); type: cell-based, human; details: n=2
# Protocol: as §1
# [1] = biological target: biotinylated Avi-POLθ[2-894] (Homo sapiens (Human), UniProt O75417); test: POLθ ATPase assay (ADP-Glo); details: n=2, read-out: Biochemical ATPase ADPGlo IC50
# Sequence of biotinylated Avi-POLθ[2-894] (O75417 2-894): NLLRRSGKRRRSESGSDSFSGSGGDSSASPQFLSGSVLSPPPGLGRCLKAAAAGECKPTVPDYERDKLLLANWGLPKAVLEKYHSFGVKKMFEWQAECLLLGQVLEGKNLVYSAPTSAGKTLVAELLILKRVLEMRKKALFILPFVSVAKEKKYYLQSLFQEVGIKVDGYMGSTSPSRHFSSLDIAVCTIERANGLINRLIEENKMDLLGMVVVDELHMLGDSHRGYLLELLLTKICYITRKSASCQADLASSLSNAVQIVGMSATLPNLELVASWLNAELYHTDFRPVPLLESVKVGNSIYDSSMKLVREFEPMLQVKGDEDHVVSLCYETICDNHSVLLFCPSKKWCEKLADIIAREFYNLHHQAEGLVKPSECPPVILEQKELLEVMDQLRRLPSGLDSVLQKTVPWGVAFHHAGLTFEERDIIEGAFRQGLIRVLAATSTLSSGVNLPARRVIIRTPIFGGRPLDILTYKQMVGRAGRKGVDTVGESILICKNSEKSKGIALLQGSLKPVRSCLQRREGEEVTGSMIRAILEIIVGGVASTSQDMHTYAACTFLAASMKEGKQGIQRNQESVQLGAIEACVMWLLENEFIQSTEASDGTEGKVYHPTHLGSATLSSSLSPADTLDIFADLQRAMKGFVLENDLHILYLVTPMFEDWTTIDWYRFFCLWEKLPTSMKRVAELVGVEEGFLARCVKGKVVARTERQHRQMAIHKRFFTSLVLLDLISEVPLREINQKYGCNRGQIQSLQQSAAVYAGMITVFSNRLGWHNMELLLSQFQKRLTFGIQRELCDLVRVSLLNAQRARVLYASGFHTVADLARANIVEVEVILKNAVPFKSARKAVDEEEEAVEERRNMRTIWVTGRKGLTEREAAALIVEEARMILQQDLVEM
# [2] = Homo sapiens, DLD-1, 168 h, 7-day CellTiter-Glo
# [3] = Homo sapiens, DLD-1, 168 h, 7-day viability
Molecule,IC50 (DLD1 BRCA2 (−/−) cells; [2]),IC50 (DLD1 WT cells; [2]),other results
COc1cnc(Cl)cc1-c1cc(C)ncc1C(=O)Nc1nc2c(s1)CN(C(=O)c1ccc(OC(F)F)cc1)C2,0.001 to 0.1 µM,≥ 10 µM,
COc1cnc(Cl)cc1-c1cc(C)ncc1C(=O)Nc1nc2c(s1)CN(C(=O)c1nc(C(F)F)ccc1F)C2,0.001 to 0.1 µM,≥ 10 µM,
COc1cnc(Cl)cc1-c1cc(C)ncc1C(=O)Nc1nc2c(s1)CN(C(=O)c1nc(C(F)F)ccc1C)C2,0.001 to 0.1 µM,≥ 10 µM,
COc1cnc(Cl)cc1-c1cc(C)ncc1C(=O)Nc1nc2c(s1)CN(C(=O)c1ccn3nccc3n1)C2,0.001 to 0.1 µM,≥ 10 µM,
COc1cnc(Cl)cc1-c1cc(C)ncc1C(=O)Nc1nc2c(s1)CN(C(=O)c1ccc(C(F)F)c(Cl)n1)C2,0.001 to 0.1 µM,≥ 10 µM,
COc1cnc(Cl)cc1-c1cc(C)ncc1C(=O)Nc1nc2c(s1)CN(C(=O)c1ccc(C(F)F)c(OC)n1)C2,0.001 to 0.1 µM,5 to 10 µM,
COc1cnc(Cl)cc1-c1cc(C)ncc1C(=O)Nc1nc2c(s1)CN(C(=O)c1ccc(C(C)(F)F)cn1)C2,0.001 to 0.1 µM,≥ 10 µM,
"2′-Chloro-5′-methoxy-6-methyl-N-(5-(3-methylpyrazine-2-carbonyl)-5,6-dihydro-4H-pyrrolo[3,4-d]thiazol-2-yl)-[4,4′-bipyridine]-3-carboxamide [Example 412]",,,IC50 (DLD1 WT cells; 7-day viability): ≥ 10 µM; IC50 [1]: 1 to 15 nM
"2′-Chloro-N-(5-(6-chloro-4-methylpicolinoyl)-5,6-dihydro-4H-pyrrolo[3,4-d]thiazol-2-yl)-5′-methoxy-6-methyl-[4,4′-bipyridine]-3-carboxamide [Example 390]",,,"IC50 (DLD1 BRCA2 (−/−) cells; 7-day CellTiter-Glo): 0.001 to 0.1 µM; IC50 ([1]; POLθ ATPase, ADP-Glo): 1 to 15 nM"
"2′-chloro-5′-methoxy-6-methyl-N-(5-(thiazole-2-carbonyl)-5,6-dihydro-4H-pyrrolo[3,4-d]thiazol-2-yl)-[4,4′-bipyridine]-3-carboxamide [Example 608]",,,IC50 (DLD1 WT cells; 7-day CellTiter-Glo): ≥ 10 µM
"2′-chloro-5′-methoxy-N-(5-(8-methoxyimidazo[1,5-a]pyridine-5-carbonyl)-5,6-dihydro-4H-pyrrolo[3,4-d]thiazol-2-yl)-6-methyl-[4,4′-bipyridine]-3-carboxamide [Example 627]",,,IC50 (DLD1 BRCA2 (−/−) cells; 7-day CellTiter-Glo): 0.001 to 0.1 µM
"COc1cnc(Cl)cc1-c1cc(C)ncc1C(=O)Nc1nc2c(s1)CN(C(=O)c1ccc(Cl)nc1OC)C2 [Example 20, 2′-chloro-N-(5-(6-chloro-2-methoxynicotinoyl)-5,6-dihydro-4H-pyrrolo[3,4-d]thiazol-2-yl)-5′-methoxy-6-methyl-[4,4′-bipyridine]-3-carboxamide]",,,IC50 (DLD1 BRCA2 (−/−) cells; [3]): 0.001 to 0.1 µM; IC50 [1]: 1 to 15 nM
"COc1cnc(Cl)cc1-c1cc(C)ncc1C(=O)Nc1nc2c(s1)CN(C(=O)[C@H]1C[C@@H](OC(F)(F)F)C1)C2 [Example 25, 2′-chloro-5′-methoxy-6-methyl-N-(5-((1s,3s)-3-(trifluoromethoxy)cyclobutane-1-carbonyl)-5,6-dihydro-4H-pyrrolo[3,4-d]thiazol-2-yl)-[4,4′-bipyridine]-3-carboxamide]",,,IC50 (DLD1 BRCA2 (−/−) cells; [3]): 0.001 to 0.1 µM; IC50 [1]: 1 to 15 nM
"COc1cnc(Cl)cc1-c1cc(C)ncc1C(=O)Nc1nc2c(s1)CN(C(=O)c1c3c(nn1C)CCC3)C2 [Example 54, 2′-chloro-5′-methoxy-6-methyl-N-(5-(2-methyl-2,4,5,6-tetrahydrocyclopenta[c]pyrazole-3-carbonyl)-5,6-dihydro-4H-pyrrolo[3,4-d]thiazol-2-yl)-[4,4′-bipyridine]-3-carboxamide]",,,IC50 (DLD1 BRCA2 (−/−) cells; [3]): 0.001 to 0.1 µM; IC50 [1]: 1 to 15 nM
"CCc1nn(C)c(C(=O)N2Cc3nc(NC(=O)c4cnc(C)cc4-c4cc(Cl)ncc4OC)sc3C2)c1Cl [Example 56, 2′-chloro-N-(5-(4-chloro-3-ethyl-1-methyl-1H-pyrazole-5-carbonyl)-5,6-dihydro-4H-pyrrolo[3,4-d]thiazol-2-yl)-5′-methoxy-6-methyl-[4,4′-bipyridine]-3-carboxamide]",,,IC50 (DLD1 BRCA2 (−/−) cells; [3]): 0.001 to 0.1 µM; IC50 [1]: 1 to 15 nM
"CCc1c(Cl)c(C(=O)N2Cc3nc(NC(=O)c4cnc(C)cc4-c4cc(Cl)ncc4OC)sc3C2)nn1C [Example 70, 2′-chloro-N-(5-(4-chloro-5-ethyl-1-methyl-1H-pyrazole-3-carbonyl)-5,6-dihydro-4H-pyrrolo[3,4-d]thiazol-2-yl)-5′-methoxy-6-methyl-[4,4′-bipyridine]-3-carboxamide]",,,IC50 (DLD1 BRCA2 (−/−) cells; [3]): 0.001 to 0.1 µM; IC50 [1]: 1 to 15 nM
COc1cnc(Cl)cc1-c1cc(C)ncc1C(=O)Nc1nc2c(s1)CN(C(=O)c1nc(C(F)F)cnc1OC)C2 [Example 468],0.001 to 0.1 µM,,"IC50 ([1]; POLθ ATPase, ADP-Glo): 1 to 15 nM"
"COc1nc(C(F)(F)F)ccc1C(=O)N1Cc2nc(NC(=O)c3cnc(C)cc3-c3cc(Cl)c[nH]c3=O)sc2C1 [Example 1045, 5-chloro-N-(5-(2-methoxy-6-(trifluoromethyl)nicotinoyl)-5,6-dihydro-4H-pyrrolo[3,4-d]thiazol-2-yl)-6′-methyl-2-oxo-1,2-dihydro-[3,4′-bipyridine]-3′-carboxamide]",,,"IC50 ([1]; POLθ ATPase, ADP-Glo): ≥ 900 nM"
"N-(5-(1H-pyrazole-4-carbonyl)-5,6- dihydro-4H-pyrrolo[3,4-d]thiazol-2-yl)- 2′-chloro-5′-methoxy-6-methyl-[4,4′- bipyridine]-3-carboxamide [Example 88]",,,IC50 [1]: 15 to 50 nM
"N-(5-(1H-pyrazole-5-carbonyl)-5,6- dihydro-4H-pyrrolo[3,4-d]thiazol-2-yl)- 2′-chloro-5′-methoxy-6-methyl-[4,4′- bipyridine]-3-carboxamide [Example 86]",,,IC50 [1]: 1 to 15 nM
"N-(5-(benzo[d]oxazole-2-carbonyl)-5,6-dihydro-4H-pyrrolo[3,4-d]thiazol-2-yl)-2′-chloro-5′-methoxy-6-methyl-[4,4′-bipyridine]-3-carboxamide [Example 615]",,,IC50 (DLD1 WT cells; 7-day CellTiter-Glo): ≥ 10 µM

# Continued, in another order:
IC50 (DLD1 BRCA2 (−/−) cells; [2]),Molecule,IC50 (DLD1 WT cells; [2]),other results
0.1 to 0.25 µM,COc1cnc(Cl)cc1-c1cc(C)ncc1C(=O)Nc1nc2c(s1)CN(C(=O)c1nc(C)cnc1C)C2,≥ 10 µM,
0.001 to 0.1 µM,COc1cnc(Cl)cc1-c1cc(C)ncc1C(=O)Nc1nc2c(s1)CN(C(=O)c1cc(C)nc3ccnn13)C2,≥ 10 µM,
0.001 to 0.1 µM,COc1cnc(Cl)cc1-c1cc(C)ncc1C(=O)Nc1nc2c(s1)CN(C(=O)c1ccc(C)c(Cl)n1)C2,≥ 10 µM,
0.001 to 0.1 µM,COc1cnc(Cl)cc1-c1cc(C)ncc1C(=O)Nc1nc2c(s1)CN(C(=O)c1ncc(C(F)F)cc1C)C2,≥ 10 µM,
0.001 to 0.1 µM,COc1cnc(Cl)cc1-c1cc(C)ncc1C(=O)Nc1nc2c(s1)CN(C(=O)c1cc(Cl)cnc1C)C2,≥ 10 µM,
0.001 to 0.1 µM,COc1cnc(Cl)cc1-c1cc(C)ncc1C(=O)Nc1nc2c(s1)CN(C(=O)c1ccc(C(F)F)c(C)n1)C2,≥ 10 µM,
0.1 to 0.25 µM,COc1cnc(Cl)cc1-c1cc(C)ncc1C(=O)Nc1nc2c(s1)CN(C(=O)c1ncc(OC(F)F)cc1Cl)C2,≥ 10 µM,
0.001 to 0.1 µM,COc1cnc(Cl)cc1-c1cc(C)ncc1C(=O)Nc1nc2c(s1)CN(C(=O)c1cnc(OC(F)F)cc1Cl)C2,≥ 10 µM,
0.001 to 0.1 µM,COc1cnc(Cl)cc1-c1cc(C)ncc1C(=O)Nc1nc2c(s1)CN(C(=O)c1cnc(OC(F)F)cc1C)C2,≥ 10 µM,
0.001 to 0.1 µM,COc1cnc(Cl)cc1-c1cc(C)ncc1C(=O)Nc1nc2c(s1)CN(C(=O)c1ncc(C(F)F)cc1F)C2,≥ 10 µM,
0.001 to 0.1 µM,COc1cnc(Cl)cc1-c1cc(C)ncc1C(=O)Nc1nc2c(s1)CN(C(=O)c1ncc(OC(F)F)cc1C)C2,≥ 10 µM,
0.5 to 2 µM,COc1cnc(Cl)cc1-c1cc(C)ncc1C(=O)Nc1nc2c(s1)CN(C(=O)c1ncc(Cl)nc1C)C2,≥ 10 µM,
